Source: patent US10889564B2, “Tetrahydroindazoles and medical uses thereof” (Genase Therapeutics B.V., priority 2015, dated 2021)

Test system: uridine uptake in ARN8 cells
Test: Tritiated uridine uptake
Type: cell-based
Settings: 15 min preincubation, 5,6-3H-Uridine 60 sec, FIG. 7
Experimental: ARN8 cells were incubated with increasing concentrations of nilotinib and tritiated uridine. The amount of tritium label in cells was determined by scintillation counting. 200 000 ARN8 cells/well were seeded on 6-well plates. 24 h post-seeding, the cells were rinsed twice with transport buffer, pH 7.4 (20 mM Tris/HCl, 130 mM NaCl, 3 mM K2HPO4, 1 mM MgCl2, 5 mM Glucose) and then incubated for 15 min at 37° C. with compounds (or vehicle) diluted in transport buffer. 5,6-3H-Uridine (PerkinElmer, #NET367001MC) was added to a final concentration of 4 μCi/mL for 60 sec, and then removed with 5 quick washes with 1 mM ice-cold unlabelled uridine (Sigma, #U3003). Samples (in triplicate) were harvested in 10% SDS (Sigma) and transferred to a flexible 24-well microplate (Perkin Elmer, #1450-402). Optiphase Supermix scintillation buffer (PerkinElmer, #1200-439) was added and the counts per minute measured for 3 min.

Cc1cn(-c2cc(NC(=O)c3ccc(C)c(Nc4nccc(-c5cccnc5)n4)c3)cc(C(F)(F)F)c2)cn1 [nilotinib]
uridine uptake: blocks uridine uptake
